Measured values as given in article PMC5570892, “Indole-based perenosins as highly potent HCl transporters and potential anti-cancer agents” (Scientific Reports, 2017).

Tests used:
[1] = pKa by UV spectrophotometric titration in POPC vesicles; format: physicochemical; conditions: apparent pKa in presence of POPC lipid bilayer, NaCl 500 mM, phosphate 5 mM
From the text: (§1) The pK a at which protonation of the imine (N2, see Fig. 3) occurs gives an indication of the optimum pH for the binding of chloride anions. This is an important consideration in anti-cancer drug development as the external pH environment of cancer cells is mildly acidic (pH 6.7)[53] compared to that of healthy cells (pH 7.2–7.5)[54]. This can be exploited to selectively target cancer cells and potentially reduce the cytotoxic effects of perenosins when used as therapeutics for anti-cancer treatment. The apparent pK a values, shown in Table 1, for compounds 1d and 2–8 were determined both in aqueous solution (pK a (aq)) and in the presence of a 1-palmitoyl-2-oleoyl-sn-glycero-3-phosphocholine (POPC) lipid bilayer membrane (pK a (mem)). UV spectrophotometric titrations were conducted by varying the pH condition from neutral to acidic with the titration of either HPF6 or HCl.
The apparent pK a values were derived from nonlinear curve fitting of the absorbance plotted against the pH; global fitting of both wavelengths corresponding to the neutral and protonated species were performed whenever feasible, see Supplementary Information for details. […]
All spectra obtained have the increasing and decreasing peaks marked with an arrow.
Isosbestic points were not observed in the titrations due to break down of the imine in acidic conditions. The breakdown product is shown, for all compounds, as the increasing absorbance peak […]
S6.2 pKa Studies in Vesicles pKa values for compounds 1d, 2, 4, 5, 7 and 8 were determined experimentally in vesicles through a […]
absorbance between the UV -Vis spectra of the protonated and the neutral species. Unilamellar vesicles were prepared using previously reported literature procedures 7-9. A lipid film of POPC (1 - palmitoyl-2-oleoyl-sn-glycero-3-phosphocholine) was prepared from a chloroform solution under reduced pressure and then dried under vacuum for 4 or more hours. The lipid film was rehydrated by vortexing with a solution of phosphate buffered (5 mM) sodium chloride (500 mM). The lipid suspension was then subjected to 9 freeze-thaw cycles and left to rest at room temperature for 30 minutes. After this, the suspension was extruded 25 times through a 400 nm polycarbonate membrane resulting in unilamellar vesicles of a mean diameter of 400 nm. The titration solution was made up to a standard volume (2500 μL, 1 mM) with the lipid (615 μL), phosphate buffered (5 mM) sodium chloride (500 mM) solution ([…]) and a transporter solution (10 μL, 25 mM), and the pH of this was noted . The UV-Vis spectra were recorded on an Agilent Cary 100 UV-Vis spectrophotometer at 25 °C with baseline correction, using standard 10 mm quartz glass cells. A baseline absorbance was measured using a solution of lipid, phosphate buffered (5 mM) sodium chloride (500 mM) and DMSO, and then the absorbance of the titration solution was measured. The pH of the solution was decreased stepwise by adding small aliquots of hydrochloric acid (0.1 mM).
(§2) (1 picture or pasted object on this page, not shown here)
After each pH decrease an absorbance measurement was taken. The absorbance at a certain wavelength (shown for each compound below) was plotted against the pH and then fitted using a dose response curve in OriginPro 9.1, where the point of inflection corresponds to the apparent pKa […]
Figure S44. Absorbance spectra taken over the course of a pH-spectrophotometric titration of 1d (25 mM) in a sodium chloride (500 mM) phosphate buffered (5 mM) lipid solution (1 mM). Inset: Abs vs. pH with dose response curve fit and the point of inflection corresponding to the p Ka value.
Figure S45. Absorbance spectra taken over the course of a pH -spectrophotometric titration of 2 (25 […]
pH with dose response curve fit with the point o f inflection corresponding to the p Ka value. […]

[2] = pKa by UV spectrophotometric titration in aqueous solution; format: physicochemical; conditions: for pK a (aq): apparent pKa, hexafluorophosphate buffered DMSO:water 50:50, 25 °C; for solubility in the pKa titration solvent system: hexafluorophosphate buffered DMSO:water 50:50
From the text: as §1
The apparent pK a values were derived from nonlinear curve fitting of the absorbance plotted against the pH; global fitting of both wavelengths corresponding to the neutral and protonated species were performed whenever feasible, see Supplementary Information for details.
S6.1 pKa Studies in Aqueous Solution pKa values for compounds 1d, 2, 4, 5, 7 and 8 were determined experimentally in aqueous solution […]
in absorbance bet ween the UV-Vis spectra of the protonated and the neutral species. The titration solution was made up with a hexafluorophosphate buffered (100 mM) DMSO:water 50:50 solution (4990 μL) and a transporter solution (10 μL, 25 mM), and the pH of this was recorded. The UV-Vis spectra were recorded on an Agilent Cary 100 UV-Vis spectrophotometer at 25 °C with baseline correction, using standard 10 mm quartz glass cells. A baseline absorbance was measured on a hexafluorophosphate buffered (100 mM) DMSO:water 50:50 solution, and then the absorbance of the titration solution was measured. The pH of the solution was decreased stepwise by adding small aliquots of hexafluorophosphoric acid ([…]). After each pH decrease an absorbance measurement was taken. The absorbance at a certain wavelength (noted for each compound below) was plotted against the pH and then fitted using a dose response curve in OriginPro 9.1, where the point of inflection corresponds to the apparent pKa in aqueous solution.
Figure S38. Absorbance spectra taken over the course of a pH-spectrophotometric titration of 1d (25 mM) in a hexafluorophosphate buffered (100 mM) DMSO:water 50:50 mixture. Inset: Abs vs. pH with dose response curve fit and the point of inflection corresponding to the pKa value.
as §2

## CCCc1cc2cc(C)cc(/N=C/c3[nH]c(C)cc3C)c2[nH]1 [Perenosin 4]
[1]
  pK a (mem): 6.12
[2]
  pK a (aq): 6.78

## CCCCCc1cc2cc(C)cc(/N=C/c3[nH]c(C)c(CCCCC)c3C)c2[nH]1 [Perenosin 6]
[2]
  solubility in the pKa titration solvent system: precipitation was observed

## CCCCCc1cc2cc(C(F)(F)F)cc(/N=C/c3[nH]c(C)cc3C)c2[nH]1 [Perenosin 3]
[2]
  solubility in the pKa titration solvent system: precipitation was observed

## CCCCCc1cc2cc(C)cc(/N=C/c3[nH]c4ccccc4c3C)c2[nH]1 [Perenosin 8]
[1]
  pK a (mem): 5.62
[2]
  pK a (aq): 6.28

## CCCCCc1cc2cc(C)cc(/N=C/c3[nH]c(C)cc3C)c2[nH]1 [Perenosin 2]
[1]
  pK a (mem): 5.85
[2]
  pK a (aq): 6.08

## CCCCCc1c(C)[nH]c(/C=N/c2cc(C)cc3cc[nH]c23)c1C [Perenosin 5]
[1]
  pK a (mem): 5.81
[2]
  pK a (aq): 6.44

## CCCCCc1cc(/N=C/c2[nH]c3ccccc3c2C)c2[nH]ccc2c1 [Perenosin 7]
[1]
  pK a (mem): 5.07
[2]
  pK a (aq): 5.51

## CCCCCc1cc(/N=C/c2[nH]c(C)cc2C)c2[nH]ccc2c1 [Perenosin 1d]
[1]
  pK a (mem): 5.42
[2]
  pK a (aq): 6.35
